Data reported in US20230331734A1, “NOVEL SPIROPYRROLIDINE DERIVED ANTIVIRAL AGENTS” (ENANTA PHARMACEUTICALS, INC., priority 2022, published 2023).

Assays:
SARS-CoV-2 3CL-protease = SARS-CoV-2 3CL-protease (Severe acute respiratory syndrome coronavirus 2 (2019-nCoV) (SARS-CoV-2), UniProt P0DTD1); assay: SARS-CoV-2 3C-like (3CL) protease fluorescence assay (FRET); type: biochemical; details: recombinant SARS-CoV-2 3CL-protease 10 nM, 30 min preincubation, substrate 40 μM, duplicate
[1] = test system: 229E human coronavirus (hCoV); assay: microbe, parasite or virus in culture; type: cell-based; details: unidentified human coronavirus, MRC5, 144 h; MRC-5 cells, MOI 0.05, 6 days at 34° C., ATPlite, duplicate
norovirus = details: phase II randomized double-blind trial, patients; cited from earlier work

| Compound | IC50 (SARS-CoV-2 3CL-protease) [nM] | EC50 [1] [nM] | reduction of gastroenteritis symptoms (norovirus) [h] |
| --- | --- | --- | --- |
| Cc1cc(C(=O)N[C@H](C(=O)C[C@@H](Cc2ccc(F)cc2)C(=O)N2C[C@]3(C[C@H]2C#N)C(=O)Nc2ccccc23)C(C)C)no1 [Example 5] | < 100 | – | – |
| CC(C)[C@H](NC(=O)C(F)(F)F)C(=O)CC(Cc1ccc(F)cc1)C(=O)N1C[C@]2(C[C@H]1C#N)C(=O)Nc1ccccc12 (some centres unmarked) [Example 2] | 100 to 1000 | > 1000 | – |
| CCOC(=O)/C=C/[C@@H]1C[C@@]2(CN1C(=O)[C@@H](CC(=O)[C@@H](NC(=O)c1cc(C)on1)C(C)C)Cc1ccc(F)cc1)C(=O)Nc1ccccc12 [Example 6] | > 1000 | – | – |
| CCOC(=O)/C=C/[C@@H]1C[C@@]2(CN1C(=O)[C@@H](CC(=O)[C@@H](NC(=O)OC(C)(C)C)C(C)C)Cc1ccc(F)cc1)C(=O)Nc1ccccc12 [Example 25] | > 1000 | – | – |
| CC(C)[C@H](NC(=O)OCc1ccccc1)C(=O)CC(Cc1ccc(F)cc1)C(=O)N1C[C@]2(C[C@H]1C#N)C(=O)Nc1ccccc12 (some centres unmarked) [Example 1] | 100 to 1000 | > 1000 | – |
| CC(=O)Oc1ccccc1C(=O)Nc1ncc([N+](=O)[O-])s1 [NTZ, nitazoxanide] | – | – | 24 |
| CC(C)[C@H](NC(=O)OC(C)(C)C)C(=O)C[C@@H](Cc1ccc(F)cc1)C(=O)N1C[C@]2(C[C@H]1C#N)C(=O)Nc1ccccc12 [Example 26] | < 100 | – | – |
| CC(C)CC(CC(=O)[C@@H](NC(=O)OCc1ccccc1)C(C)C)C(=O)N1C[C@]2(C[C@H]1C#N)C(=O)Nc1ccccc12 (some centres unmarked) [Example 3] | > 1000 | > 1000 | – |
